Test results taken from patent US11827628B2, “Compositions and methods for inhibition of the JAK pathway” (Rigel Pharmaceuticals, Inc., priority 2005, dated 2023).
Where two headings read alike, the source gives them in different places.

What was measured:
[1] = tested on: up-regulation of ICAM-1 (CD54) by IFNγ in A549 lung epithelial cells; experiment: A549 Epithelial Line Stimulated with IFNγ (ICAM-1 surface expression, FACS); assay type: cell-based, human; conditions: ICAM-1 expression by FACS, read-out: IC50, Example 43
In short: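 ICAM-1 (CD54) flow cytometry on live-gated A549 cells, geometric mean versus dose giving EC50. Cells received IFNγ at 75 ng/mL for 24 h after a 1 h compound pre-treatment spanning 30 μM to 14 nM in medium with 5% FBS and 0.3% DMSO.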

Primary human T-cells = experiment: Primary Human T-Cell Proliferation Assay Stimulated with IL-2 (CellTiter-Glo); assay type: cell-based; conditions: read-out: IC50, Example 42
In short: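 IC50 derived from CellTiter-Glo ATP signal after 72 hours of IL-2-driven proliferation at 37° C. Cells: primary human T-cells from blood, stimulated beforehand 3-4 days on anti-CD3/anti-CD28 with IL-2, then rested from IL-2 before compound exposure in duplicate; IL-2-free wells served as unstimulated control.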

[2] = A549 cells stimulated with IFNγ
[3] = primary human T-cells stimulated with IL-2, proliferation
[4] = A549 epithelial line stimulated with IFNγ
[5] = primary human T-cell proliferation stimulated with IL-2

IC50 [1, 2]	IC50 [1, 4]	Compound	IC50 (Primary human T-cells; [3])	IC50 (Primary human T-cells; [5])
4420 nM	–	CN1C(=O)CSc2ccc(Nc3nc(Nc4cccc(S(=O)(=O)N5CCCCC5)c4)ncc3F)cc21 [VII-50, 5-Fluoro-N4-(4-methyl-3-oxo-benz[1,4]thiazin-6-yl)-N2-(3-pipendinosulfonylphenyl)-2,4-pyrimidinediamine]	856 nM	–
22000 nM	–	N2-[3-Aminosulfonyl-4-(4-methylpiperazine-1-yl)phenyl]-N4-(3-cyanomethylene-1H-indol-6-yl)-5-fluoro-2,4-pyrimidinediamine [IX-17]	815 nM	–
55200 nM	–	N2-[3-Aminosulfonyl-4-(4-methylpiperazine-1-yl)phenyl]-N4-(3-cyanomethylene-1H-indol-7-yl)-5-fluoro-2,4-pyrimidinediamine [IX-18]	2400 nM	–
–	1340 nM	N#CCOc1ccc(Nc2nc(Nc3cccc(S(N)(=O)=O)c3)ncc2Br)cc1 [Compound I-13, N2-(3-Aminosulfonylphenyl)-5-bromo-N4-(4-cyanomethyleneoxyphenyl)-2,4-pyrimidinediamine]	–	5.05 nM
–	14500 nM	Cc1cc(Nc2nc(Nc3ccc(C)c(S(N)(=O)=O)c3)ncc2F)ccc1OC(C)C(N)=O (racemic) [Compound I-121, Racemic N4-[4-(1-Aminocarbonyl)ethoxy-3-methyl]phenyl-N2-(3-aminosulfonyl-4-methyl)phenyl-5-fluoro-2,4-pyrimidinediamine]	–	634 nM
36800 nM	–	N#CCn1ccc2cc(Nc3nc(Nc4ccc(S(N)(=O)=O)cc4)ncc3F)ccc21 [IX-6, N2-(4-Aminosulfonylphenyl)-N4-(1-cyanomethyleneindol-5-yl)-5-fluoro-2,4-pyrimidinediamine]	535 nM	–
–	20000 nM	Cc1cc(Nc2nc(Nc3cccc(S(N)(=O)=O)c3)ncc2F)ccc1OC(C)C(N)=O (racemic) [Compound I-120, Racemic N4-[4-(1-Aminocarbonyl)ethoxy-3-methyl]phenyl-N2-(3-aminosulfonyl)phenyl-5-fluoro-2,4-pyrimidinediamine]	–	280 nM
–	2970 nM	Cc1ccc(Nc2nc(Nc3ccc(S(N)(=O)=O)cc3)ncc2F)cc1OCC(=O)N1CCOCC1 [Compound I-209, N2-(4-Aminosulfonylphenyl)-5-fluoro-N4-[4-methyl-3-(2-morpholinocarbonylmethyleneoxy)phenyl]-2,4-pyrimidinediamine]	–	4470 nM
–	40900 nM	Cc1ccc(Nc2ncc(F)c(Nc3cc(C)c(OCC(N)=O)c(C)c3)n2)cc1S(N)(=O)=O [Compound I-96, N4-(4-Aminocarbonylmethoxy-3,5-dimethyl)phenyl-N2-(3-aminosulfonyl-4-methyl)phenyl-5-fluoro-2,4-pyrimidinediamine]	–	772 nM
–	38700 nM	N2-(3-Aminosulfonyl-4-methylphenyl)-5-fluoro-N4-[4-(2-pyridinyl)-3-fluoromethyleneoxyphenyl]-2,4-pyrimidinediamine [Compound I-172]	–	277 nM
4030 nM	–	Cc1ccc(Nc2ncc(F)c(Nc3ccc4c(c3)NC(=O)CS4)n2)cc1S(N)(=O)=O [VII-45, N2-(3-Aminosulphonyl-4-methyl-phenyl)-5-fluoro-N4-(3-oxo-4H-benzo[1,4]thiazin-6-yl)-2,4-pyrimidinediamine]	282 nM	–
–	5030 nM	Cc1ccc(Nc2ncc(F)c(Nc3ccc(OCc4ccncc4)cc3)n2)cc1S(N)(=O)=O [Compound I-194, N2-(3-Aminosulfonyl-4-methylphenyl)-5-fluoro-N4-[4-(4-pyridinyl)methyleneoxyphenyl]-2,4-pyrimidinediamine]	–	99.3 nM
30500 nM	–	NC1CCOc2ccc(Nc3nc(Nc4ccc(S(N)(=O)=O)cc4)ncc3F)cc21 (stereo not drawn) [VII-29, N2-(4-Aminosulfonylphenyl)-N4-(chroman-4-amine-6-yl)-5-fluoro-2,4-pyrimidinediamine]	1460 nM	–
16600 nM	–	NC1CCOc2ccc(Nc3nc(Nc4cccc(S(N)(=O)=O)c4)ncc3F)cc21 (stereo not drawn) [VII-28, N2-(3-Aminosulfonylphenyl)-N4-(chroman-4-amine-6-yl)-5-fluoro-2,4-pyrimidinediamine]	709 nM	–
–	9310 nM	CNS(=O)(=O)c1cc(Nc2ncc(F)c(Nc3ccc(OCc4cccnc4)cc3)n2)ccc1C [Compound I-190, 5-Fluoro-N2-[3-(N-methylaminosulfony)-4-methylphenyl]-5-fluoro-N4-[4-(3-pyridinyl)methyleneoxyphenyl]-2,4-pyrimidinediamine]	–	242 nM
18700 nM	–	C#CCOc1ccc(Nc2nc(Nc3ccc(C)c(S(=O)(=O)NC4CCN(C)CC4)c3)ncc2F)cc1 [VI-69, 5-Fluoro-N2-{[4-methyl-3-((1-methylpiperidin-4-yl)aminosulfonyl)]phenyl} N4-[4-(prop-2-ynyloxy)phenyl]-2,4-pyrimidinediamine]	1340 nM	–
–	15100 nM	NS(=O)(=O)c1cccc(Nc2ncc(F)c(Nc3ccc(OCc4cccnc4)cc3)n2)c1 [Compound I-188, N2-(3-Aminosulfonylphenyl)-5-fluoro-N4-[4-(3-pyridinyl)methyleneoxyphenyl]-2,4-pyrimidinediamine]	–	64.2 nM
13100 nM	–	CCS(=O)(=O)N1CCc2cc(Nc3nc(Nc4ccc(C)c(S(N)(=O)=O)c4)ncc3F)ccc2C1 [VII-15, N2-(3-aminosulfonyl-4-methyl)phenyl-N4-[(N-ethylsulfonyl)-1,2,3,4-tetrahydroisoquinolin-6-yl]-5-fluoro-2,4-pyrimidinediamine]	121 nM	–
–	15600 nM	CN1CCN(c2ccc(Nc3ncc(F)c(Nc4ccc(OCC#N)cc4)n3)cc2S(N)(=O)=O)CC1 [Compound I-9, N2-[3-Aminosulfonyl-4-(4-methylpiperazin-1-yl)phenyl]-5-fluoro-N4-(4-cyanomethyleneoxyphenyl)-2,4-pyrimidinediamine]	–	485 nM
–	10400 nM	Cc1ccc(Nc2ncc(F)c(Nc3cc(C)c(OC(C)C(N)=O)c(C)c3)n2)cc1S(N)(=O)=O (racemic) [Compound I-124, Racemic N4-[4-(1-Aminocarbonyl)ethoxy-3,5-dimethyl]phenyl-N2-(3-aminosulfonyl-4-methyl)phenyl-5-fluoro-2,4-pyrimidinediamine]	–	342 nM
–	3200 nM	N#CCOc1ccc(Nc2nc(Nc3cccc(S(N)(=O)=O)c3)ncc2F)cc1F [Compound I-12, N2-(3-Aminosulfonylphenyl)-5-fluoro-N4-(4-cyanomethyleneoxy-3-fluorophenyl)-2,4-pyrimidinediamine]	–	59.7 nM
9930 nM	–	CCS(=O)(=O)N1CCc2cc(Nc3nc(Nc4cccc(S(N)(=O)=O)c4)ncc3F)ccc2C1 [VII-14, N2-(3-aminosulfonyl)phenyl-N4-[(N-ethylsulfonyl)-1,2,3,4-tetrahydroisoquinolin-6-yl]-5-fluoro-2,4-pyrimidinediamine]	177 nM	–
12500 nM	–	CNC(=O)N1CCCc2cc(Nc3nc(Nc4ccc(C)c(S(N)(=O)=O)c4)ncc3F)ccc21 [VII-19, N2-(3-Aminosulfonyl-4-methylphenyl)-5-fluoro-N4-[1-(methylaminocarbonyl)-1,2,3,4-tetrahydroquin-6-yl]-2,4-pyrimidinediamine]	514 nM	–
–	6550 nM	CN1CCN(c2ccc(Nc3ncc(F)c(Nc4ccc(OCC#N)c(F)c4)n3)cc2S(N)(=O)=O)CC1 [Compound I-10, N2-[3-Aminosulfonyl-4-(4-methylpiperazine-1-yl)phenyl]-5-fluoro-N4-(4-cyanomethyleneoxy-3-fluorophenyl)-2,4-pyrimidinediamine]	–	95.7 nM
